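Cells were grown in 96-well plates and exposed to each compound for 48 hours at five concentrations; endpoints were interpolated linearly between bracketing concentrations, or set to the highest concentration if not reached. The concentration for 50% growth inhibition is given as GI50. The concentration for full growth arrest is given as TGI.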
Tests used:
Test in all cases: inhibition of tumour cell growth, NCI panel, 48 h
SF-268 CNS = system: SF-268 CNS
SK-MEL-5 melanoma = system: SK-MEL-5 melanoma
DU-145 prostate = system: DU-145 prostate
HCT-116 colon = system: HCT-116 colon
NCI/ADR-RES ovarian = system: NCI/ADR-RES ovarian
OVCAR-4 ovarian = system: OVCAR-4 ovarian
A498 renal = system: A498 renal
M14 melanoma = system: M14 melanoma
A549 NSCLC = system: A549 NSCLC
MDA-MB-468 breast = system: MDA-MB-468 breast
KM12 colon = system: KM12 colon
SK-OV-3 ovarian = system: SK-OV-3 ovarian
HCC-2998 colon = system: HCC-2998 colon
SF-295 CNS = system: SF-295 CNS
HT29 colon = system: HT29 colon
SW-620 colon = system: SW-620 colon
NCI-H522 lung = system: NCI-H522 lung
CCRF-CEM leukemia = system: CCRF-CEM leukemia
MOLT-4 leukemia = system: MOLT-4 leukemia
UO-31 renal = system: UO-31 renal
OVCAR-3 ovarian = system: OVCAR-3 ovarian
HS 578T breast = system: HS 578T breast
SR leukemia = system: SR leukemia
COLO 205 colon = system: COLO 205 colon
HOP-92 NSCLC = system: HOP-92 NSCLC
CAKI-1 renal = system: CAKI-1 renal
OVCAR-8 ovarian = system: OVCAR-8 ovarian
SN12C renal = system: SN12C renal
U251 CNS = system: U251 CNS
BT-549 breast = system: BT-549 breast
MDA-MB-435 = system: MDA-MB-435
EKVX NSCLC = system: EKVX NSCLC
IGROV1 ovarian = system: IGROV1 ovarian
SNB-19 CNS = system: SNB-19 CNS
786-0 renal = system: 786-0 renal
MALME-3M melanoma = system: MALME-3M melanoma
OVCAR-5 ovarian = system: OVCAR-5 ovarian
NCI-H460 lung = system: NCI-H460 lung
SK-MEL-2 melanoma = system: SK-MEL-2 melanoma
TK-10 renal = system: TK-10 renal
T-47D breast = system: T-47D breast
UACC-62 melanoma = system: UACC-62 melanoma
RPMI-8226 leukemia = system: RPMI-8226 leukemia
HOP-62 NSCLC = system: HOP-62 NSCLC
ACHN renal = system: ACHN renal
MDA-MB-231 breast = system: MDA-MB-231 breast
NCI-H226 lung = system: NCI-H226 lung
MCF7 breast = system: MCF7 breast
K-562 leukemia = system: K-562 leukemia
NCI-H23 lung = system: NCI-H23 lung
UACC-257 melanoma = system: UACC-257 melanoma
SF-539 CNS = system: SF-539 CNS
SNB-75 CNS = system: SNB-75 CNS
HL-60(TB) leukemia = system: HL-60(TB) leukemia
HCT-15 colon = system: HCT-15 colon
LOX IMVI melanoma = system: LOX IMVI melanoma
PC-3 prostate = system: PC-3 prostate
SK-MEL-28 melanoma = system: SK-MEL-28 melanoma

C#CCCCN(CCNc1ccnc2cc(Cl)ccc12)C(=O)CCC(=O)O[C@@H]1O[C@@H]2OC3(C)CC[C@H]4[C@H](C)CC[C@@H]([C@H]1C)[C@@]24OO3
GI50 (SF-268 CNS): 7.45 µM | TGI (SF-268 CNS): > 11.5 µM | GI50 (SK-MEL-5 melanoma): 1.18 µM | TGI (SK-MEL-5 melanoma): 8.98 µM | GI50 (DU-145 prostate): 8.95 µM | TGI (DU-145 prostate): > 11.5 µM | GI50 (HCT-116 colon): 0.554 µM | TGI (HCT-116 colon): > 11.5 µM | GI50 (NCI/ADR-RES ovarian): 1.83 µM | TGI (NCI/ADR-RES ovarian): > 11.5 µM | GI50 (OVCAR-4 ovarian): 1.39 µM | TGI (OVCAR-4 ovarian): > 11.5 µM | GI50 (A498 renal): > 11.5 µM | TGI (A498 renal): > 11.5 µM | GI50 (M14 melanoma): 4.86 µM | TGI (M14 melanoma): > 11.5 µM | GI50 (A549 NSCLC): 7.37 µM | TGI (A549 NSCLC): > 11.5 µM | GI50 (MDA-MB-468 breast): 1.74 µM | TGI (MDA-MB-468 breast): 5.49 µM | GI50 (KM12 colon): 0.572 µM | TGI (KM12 colon): > 11.5 µM | GI50 (SK-OV-3 ovarian): > 11.5 µM | TGI (SK-OV-3 ovarian): > 11.5 µM | GI50 (HCC-2998 colon): 2.72 µM | TGI (HCC-2998 colon): > 11.5 µM | GI50 (SF-295 CNS): 1.87 µM | TGI (SF-295 CNS): > 11.5 µM | GI50 (HT29 colon): 0.701 µM | TGI (HT29 colon): > 11.5 µM | GI50 (SW-620 colon): 0.643 µM | TGI (SW-620 colon): > 11.5 µM | GI50 (NCI-H522 lung): 0.788 µM | TGI (NCI-H522 lung): > 11.5 µM | GI50 (CCRF-CEM leukemia): 0.697 µM | TGI (CCRF-CEM leukemia): > 11.5 µM | GI50 (MOLT-4 leukemia): 0.527 µM | TGI (MOLT-4 leukemia): 5.82 µM | GI50 (UO-31 renal): 1.19 µM | TGI (UO-31 renal): > 11.5 µM | GI50 (OVCAR-3 ovarian): 0.876 µM | TGI (OVCAR-3 ovarian): > 11.5 µM | GI50 (HS 578T breast): 1.83 µM | TGI (HS 578T breast): > 11.5 µM | GI50 (SR leukemia): 0.475 µM | TGI (SR leukemia): 9.37 µM | GI50 (COLO 205 colon): 1.39 µM | TGI (COLO 205 colon): > 11.5 µM | GI50 (HOP-92 NSCLC): 0.581 µM | TGI (HOP-92 NSCLC): 6.74 µM | GI50 (CAKI-1 renal): 8.21 µM | TGI (CAKI-1 renal): > 11.5 µM | GI50 (OVCAR-8 ovarian): 1.04 µM | TGI (OVCAR-8 ovarian): > 11.5 µM | GI50 (SN12C renal): 3.06 µM | TGI (SN12C renal): > 11.5 µM | GI50 (U251 CNS): 2.73 µM | TGI (U251 CNS): > 11.5 µM | GI50 (BT-549 breast): 1.27 µM | TGI (BT-549 breast): > 11.5 µM | GI50 (MDA-MB-435): 0.772 µM | TGI (MDA-MB-435): > 11.5 µM | GI50 (EKVX NSCLC): 1.03 µM | TGI (EKVX NSCLC): > 11.5 µM | GI50 (IGROV1 ovarian): 3.01 µM | TGI (IGROV1 ovarian): > 11.5 µM | GI50 (SNB-19 CNS): 7.16 µM | TGI (SNB-19 CNS): > 11.5 µM | GI50 (786-0 renal): 5.67 µM | TGI (786-0 renal): > 11.5 µM | GI50 (MALME-3M melanoma): 2.56 µM | TGI (MALME-3M melanoma): > 11.5 µM | GI50 (OVCAR-5 ovarian): 0.974 µM | TGI (OVCAR-5 ovarian): > 11.5 µM | GI50 (NCI-H460 lung): 5.09 µM | TGI (NCI-H460 lung): > 11.5 µM | GI50 (SK-MEL-2 melanoma): 4.93 µM | TGI (SK-MEL-2 melanoma): > 11.5 µM | GI50 (TK-10 renal): 8.12 µM | TGI (TK-10 renal): > 11.5 µM | GI50 (T-47D breast): 0.402 µM | TGI (T-47D breast): > 11.5 µM | GI50 (UACC-62 melanoma): 0.878 µM | TGI (UACC-62 melanoma): > 11.5 µM | GI50 (RPMI-8226 leukemia): 0.399 µM | TGI (RPMI-8226 leukemia): > 11.5 µM | GI50 (HOP-62 NSCLC): > 11.5 µM | TGI (HOP-62 NSCLC): > 11.5 µM | GI50 (ACHN renal): 2.18 µM | TGI (ACHN renal): > 11.5 µM | GI50 (MDA-MB-231 breast): 9.5 µM | TGI (MDA-MB-231 breast): > 11.5 µM | GI50 (NCI-H226 lung): 3.76 µM | TGI (NCI-H226 lung): > 11.5 µM | GI50 (MCF7 breast): 0.805 µM | TGI (MCF7 breast): > 11.5 µM | GI50 (K-562 leukemia): 0.448 µM | TGI (K-562 leukemia): > 11.5 µM | GI50 (NCI-H23 lung): 1.08 µM | TGI (NCI-H23 lung): > 11.5 µM | GI50 (UACC-257 melanoma): 2.3 µM | TGI (UACC-257 melanoma): > 11.5 µM | GI50 (SF-539 CNS): 3.99 µM | TGI (SF-539 CNS): > 11.5 µM | GI50 (SNB-75 CNS): > 11.5 µM | TGI (SNB-75 CNS): > 11.5 µM | GI50 (HL-60(TB) leukemia): 0.364 µM | TGI (HL-60(TB) leukemia): 1.82 µM | GI50 (HCT-15 colon): 0.337 µM | TGI (HCT-15 colon): > 11.5 µM | GI50 (LOX IMVI melanoma): 0.676 µM | TGI (LOX IMVI melanoma): 2.82 µM | GI50 (PC-3 prostate): 0.194 µM | TGI (PC-3 prostate): > 11.5 µM | GI50 (SK-MEL-28 melanoma): 2.64 µM | TGI (SK-MEL-28 melanoma): > 11.5 µM
